# Literature values, collected in patent US20060088904A1, “Methods for the synthesis of astaxanthin” (priority 2004, published 2006).
# What was measured:
# [1] = system: transformed cells as well as normal prostatic epithelium; details: cultured human cells; alone and/or in combination with other antioxidants (e.g. vitamin E)
# [2] = system: cigarette-smoke induced lung pathology; details: ferret
# [3] = system: peroxyl radical chain reaction in liposome systems; details: appropriate dose
SMILES,growth inhibition [1],protection against cigarette-smoke induced lung pathology [2],suppression of peroxyl radical chain reaction [3]
CC(C)=CCC/C(C)=C/C=C/C(C)=C/C=C/C(C)=C/C=C/C=C(C)/C=C/C=C(C)/C=C/C=C(\C)CCC=C(C)C [lycopene],growth inhibitory,protective,–
CC1=C(/C=C/C(C)=C/C=C/C(C)=C/C=C/C=C(C)/C=C/C=C(C)/C=C/C2=C(C)C(=O)C(O)CC2(C)C)C(C)(C)CC(O)C1=O (stereo not drawn) [astaxanthin],–,–,completely suppress
